According to patent US7767455B2, “Nucleus export reporter system” (priority 2000, dated 2010):

How the values were obtained:
[1] = tested on: huGFP reporter; test: Expression of the Rev-independent huGFP reporter in transfected H1299 cells (Western blot); format: cell-based, human; conditions: 5 nM LMB in the medium 24 h before harvesting, FIG. 5B
[2] = tested on: Rev-mediated nuclear export; test: Inhibition of Rev-dependent GFP expression of the UTR-hivGFP-RRE reporter in transfected H1299 cells (Western blot); format: cell-based, human; conditions: 5 nM LMB in the medium 24 h before harvesting, Rev cotransfected, FIG. 5B

SMILES: CCC(=C/[C@H](C)C/C=C/C(C)=C/[C@@H](C)C(=O)[C@@H](C)[C@H](O)[C@@H](C)C/C(C)=C/C(=O)O)/C=C/[C@@H]1OC(=O)C=C[C@@H]1C [LMB, Leptomycin B]
- expression of the huGFP reporter [1]: not the expression of the huGFP reporter
- expression of the Rev-dependent GFP reporter [2]: inhibit
